Reference: PubChem BioAssay (NCI)
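These data come from cells grown in 96-well plates and exposed to compound for 48 hours at five concentrations. Here, GI50 denotes the concentration required for 50% inhibition of growth. TGI: total growth inhibition.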

Legend:
Test in all cases: NCI anticancer screen, dose series, 48 h
786-0 renal = test system: 786-0 renal
A498 renal = test system: A498 renal
A549 NSCLC = test system: A549 NSCLC
ACHN renal = test system: ACHN renal
BT-549 breast = test system: BT-549 breast
CAKI-1 renal = test system: CAKI-1 renal
CCRF-CEM leukemia = test system: CCRF-CEM leukemia
COLO 205 colon = test system: COLO 205 colon
DU-145 prostate = test system: DU-145 prostate
EKVX NSCLC = test system: EKVX NSCLC
HCC-2998 colon = test system: HCC-2998 colon
HCT-116 colon = test system: HCT-116 colon
HCT-15 colon = test system: HCT-15 colon
HL-60(TB) leukemia = test system: HL-60(TB) leukemia
HOP-62 NSCLC = test system: HOP-62 NSCLC
HOP-92 NSCLC = test system: HOP-92 NSCLC
HS 578T breast = test system: HS 578T breast
HT29 colon = test system: HT29 colon
IGROV1 ovarian = test system: IGROV1 ovarian
K-562 leukemia = test system: K-562 leukemia
KM12 colon = test system: KM12 colon
LOX IMVI melanoma = test system: LOX IMVI melanoma
M14 melanoma = test system: M14 melanoma
MALME-3M melanoma = test system: MALME-3M melanoma
MCF7 breast = test system: MCF7 breast
MDA-MB-231 breast = test system: MDA-MB-231 breast
MDA-MB-435 = test system: MDA-MB-435
MOLT-4 leukemia = test system: MOLT-4 leukemia
NCI-H226 lung = test system: NCI-H226 lung
NCI-H23 lung = test system: NCI-H23 lung
NCI-H460 lung = test system: NCI-H460 lung
NCI-H522 lung = test system: NCI-H522 lung
NCI/ADR-RES ovarian = test system: NCI/ADR-RES ovarian
OVCAR-3 ovarian = test system: OVCAR-3 ovarian
OVCAR-4 ovarian = test system: OVCAR-4 ovarian
OVCAR-5 ovarian = test system: OVCAR-5 ovarian
OVCAR-8 ovarian = test system: OVCAR-8 ovarian
PC-3 prostate = test system: PC-3 prostate
RPMI-8226 leukemia = test system: RPMI-8226 leukemia
RXF 393 renal = test system: RXF 393 renal
SF-268 CNS = test system: SF-268 CNS
SF-295 CNS = test system: SF-295 CNS
SF-539 CNS = test system: SF-539 CNS
SK-MEL-2 melanoma = test system: SK-MEL-2 melanoma
SK-MEL-28 melanoma = test system: SK-MEL-28 melanoma
SK-MEL-5 melanoma = test system: SK-MEL-5 melanoma
SK-OV-3 ovarian = test system: SK-OV-3 ovarian
SN12C renal = test system: SN12C renal
SNB-19 CNS = test system: SNB-19 CNS
SNB-75 CNS = test system: SNB-75 CNS
SR leukemia = test system: SR leukemia
SW-620 colon = test system: SW-620 colon
T-47D breast = test system: T-47D breast
TK-10 renal = test system: TK-10 renal
U251 CNS = test system: U251 CNS
UACC-257 melanoma = test system: UACC-257 melanoma
UACC-62 melanoma = test system: UACC-62 melanoma
UO-31 renal = test system: UO-31 renal

Work on `CCOc1nc(-c2ccccc2)cc2c(O)c(C(=O)N/N=C/c3ccc(O)cc3O)[nH]c(=O)c12` yielded a GI50 (786-0 renal) of 2.31 µM, a TGI (786-0 renal) of 8.34 µM and a GI50 (A498 renal) of 3.64 µM. The TGI (A498 renal) was 28.5 µM, the GI50 (A549 NSCLC) was 6.5 µM and the TGI (A549 NSCLC) was greater than 100 µM. For the same molecule, the GI50 (ACHN renal) was 1.79 µM, the TGI (ACHN renal) was greater than 35.5 µM and the GI50 (BT-549 breast) was 1.65 µM. For the same molecule, the TGI (BT-549 breast) was greater than 26.3 µM, the GI50 (CAKI-1 renal) was 1.91 µM and the TGI (CAKI-1 renal) was greater than 29.5 µM. It also gave a GI50 (CCRF-CEM leukemia) of 0.357 µM, a TGI (CCRF-CEM leukemia) greater than 23.2 µM and a GI50 (COLO 205 colon) of 0.751 µM. It also gave a TGI (COLO 205 colon) of 12.6 µM, a GI50 (DU-145 prostate) of 2.61 µM and a TGI (DU-145 prostate) of 25.5 µM. The GI50 (EKVX NSCLC) was 2.5 µM, the TGI (EKVX NSCLC) was greater than 100 µM and the GI50 (HCC-2998 colon) was 1.95 µM. It also gave a TGI (HCC-2998 colon) greater than 82.3 µM, a GI50 (HCT-116 colon) of 0.66 µM and a TGI (HCT-116 colon) of 17.5 µM. The GI50 (HCT-15 colon) was 1.5 µM, the TGI (HCT-15 colon) was greater than 100 µM and the GI50 (HL-60(TB) leukemia) was 1.44 µM. The TGI (HL-60(TB) leukemia) was 13.4 µM, the GI50 (HOP-62 NSCLC) was 1.65 µM and the TGI (HOP-62 NSCLC) was greater than 52.1 µM. It also gave a GI50 (HOP-92 NSCLC) of 4.42 µM, a TGI (HOP-92 NSCLC) greater than 100 µM and a GI50 (HS 578T breast) of 14 µM. The TGI (HS 578T breast) was greater than 100 µM, the GI50 (HT29 colon) was 5.41 µM and the TGI (HT29 colon) was greater than 100 µM. The GI50 (IGROV1 ovarian) was 4.08 µM, the TGI (IGROV1 ovarian) was 59.5 µM and the GI50 (K-562 leukemia) was 1.62 µM. For the same molecule, the TGI (K-562 leukemia) was greater than 100 µM, the GI50 (KM12 colon) was 5.73 µM and the TGI (KM12 colon) was greater than 100 µM. It also gave a GI50 (LOX IMVI melanoma) of 0.686 µM, a TGI (LOX IMVI melanoma) of 9.11 µM and a GI50 (M14 melanoma) of 1.45 µM. For the same molecule, the TGI (M14 melanoma) was 7.16 µM, the GI50 (MALME-3M melanoma) was 2.86 µM and the TGI (MALME-3M melanoma) was greater than 40.5 µM. The GI50 (MCF7 breast) was 2.17 µM, the TGI (MCF7 breast) was greater than 32 µM and the GI50 (MDA-MB-231 breast) was 4.12 µM. It also gave a TGI (MDA-MB-231 breast) greater than 93 µM, a GI50 (MDA-MB-435) of 4.05 µM and a TGI (MDA-MB-435) greater than 100 µM. The GI50 (MOLT-4 leukemia) was 0.22 µM, the TGI (MOLT-4 leukemia) was greater than 94.4 µM and the GI50 (NCI-H226 lung) was 1.49 µM. The TGI (NCI-H226 lung) was 8.15 µM, the GI50 (NCI-H23 lung) was 4.66 µM and the TGI (NCI-H23 lung) was greater than 82.8 µM. The GI50 (NCI-H460 lung) was 3.6 µM, the TGI (NCI-H460 lung) was 27.6 µM and the GI50 (NCI-H522 lung) was 1.29 µM. For the same molecule, the TGI (NCI-H522 lung) was 23.5 µM, the GI50 (NCI/ADR-RES ovarian) was 1.77 µM and the TGI (NCI/ADR-RES ovarian) was greater than 31.3 µM. It also gave a GI50 (OVCAR-3 ovarian) of 0.364 µM, a TGI (OVCAR-3 ovarian) of 10.6 µM and a GI50 (OVCAR-4 ovarian) of 0.407 µM. It also gave a TGI (OVCAR-4 ovarian) greater than 40.8 µM, a GI50 (OVCAR-5 ovarian) of 7.06 µM and a TGI (OVCAR-5 ovarian) greater than 100 µM. It also gave a GI50 (OVCAR-8 ovarian) of 0.965 µM, a TGI (OVCAR-8 ovarian) greater than 37.1 µM and a GI50 (PC-3 prostate) of 5.55 µM. For the same molecule, the TGI (PC-3 prostate) was greater than 100 µM, the GI50 (RPMI-8226 leukemia) was 5.62 µM and the TGI (RPMI-8226 leukemia) was 43 µM. The GI50 (RXF 393 renal) was 1.53 µM, the TGI (RXF 393 renal) was 11.9 µM and the GI50 (SF-268 CNS) was 0.766 µM. The TGI (SF-268 CNS) was 16.4 µM, the GI50 (SF-295 CNS) was 4.88 µM and the TGI (SF-295 CNS) was greater than 100 µM. It also gave a GI50 (SF-539 CNS) of 0.904 µM, a TGI (SF-539 CNS) of 6.06 µM and a GI50 (SK-MEL-2 melanoma) of 5.1 µM. The TGI (SK-MEL-2 melanoma) was 88.8 µM, the GI50 (SK-MEL-28 melanoma) was 2.32 µM and the TGI (SK-MEL-28 melanoma) was greater than 100 µM. For the same molecule, the GI50 (SK-MEL-5 melanoma) was 1.48 µM, the TGI (SK-MEL-5 melanoma) was greater than 57.6 µM and the GI50 (SK-OV-3 ovarian) was 1.26 µM. It also gave a TGI (SK-OV-3 ovarian) greater than 24.7 µM, a GI50 (SN12C renal) of 2.43 µM and a TGI (SN12C renal) greater than 39 µM. It also gave a GI50 (SNB-19 CNS) of 1.42 µM, a TGI (SNB-19 CNS) greater than 46.8 µM and a GI50 (SNB-75 CNS) of 3.16 µM. The TGI (SNB-75 CNS) was greater than 42 µM, the TGI (SR leukemia) was greater than 27.5 µM and the GI50 (SW-620 colon) was 1.88 µM. It also gave a TGI (SW-620 colon) greater than 100 µM, a GI50 (T-47D breast) of 1.64 µM and a TGI (T-47D breast) of 50.1 µM. For the same molecule, the GI50 (TK-10 renal) was 6.47 µM, the TGI (TK-10 renal) was greater than 100 µM and the GI50 (U251 CNS) was 0.789 µM. The TGI (U251 CNS) was greater than 100 µM, the GI50 (UACC-257 melanoma) was 2.93 µM and the TGI (UACC-257 melanoma) was 17.3 µM. For the same molecule, the GI50 (UACC-62 melanoma) was 1.17 µM, the GI50 (UO-31 renal) was 1.52 µM and the TGI (UO-31 renal) was 16 µM.
